In patent US5238838A (Degussa Aktiengesellschaft, priority 1991, dated 1993):
Where “and” joins values, the source holds several entries; their conditions need not be identical. Identical values can stand only once. Entries after “also recorded” stand apart in the source; their conditions may differ. Like-named read-outs stand apart in the source and are kept apart here.

Legend:
[1] = test system: L-carnitine amidase;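 further: additives put into the enzyme mixture before substrate, reaction then initiated by substrate addition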
Procedure: In order to test the influence of various additives on the enzyme activity, they were added to the test batches without substrate in a final concentration of 1 mM and 10 mM in each instance. The reaction batches were first incubated for 45 min. at 30° C. before the reaction was started by adding substrate solution.

[2] = test system: L-carnitine amidase; experiment: Substrate spectrum of L-carnitine amidase; format: biochemical, strain DSM 6230; conditions: substrate 50 mM; 30° C.; 100 mM potassium phosphate buffer pH 8
Procedure: The enzyme test was carried out at 30° C. in 100 mM potassium phosphate buffer pH 8. The substrate concentration was 50 mM.

[3] = test system: L-carnitine amidase; experiment: Test for the induction of L-carnitine amidase; format: cell-based, strain DSM 6230; conditions: for Activity (mU/mg) / Activity (mU/ml): 5 g/l of the substance as inductor, 36 h, L-carnitine amide as substrate
Procedure: (§1) In this test, various substances were examined for their induction action. At the same time, the growth on these compounds was followed. The medium used was a minimum medium with 1.0 g/l instead of 0.5 g/l yeast extract, to which 5 g/l of the substance to be tested were added in each instance. The culture without inductor contained 5 g/l yeast extract. All tests were carried out with 20 ml shaking cultures which were incubated 36 h at 30° C. and 120 rpms in a rotating [round]shaking machine. These cultures were inoculated with 1% of an initial culture of strain DSM 6230. L-carnitine amide was used as substrate for the enzyme test.
(§2) At the same time, the growth of the bacteria was followed in these carnitine amide concentrations. The culture conditions corresponded to those in example 3.

[4] = test system: strain DSM 6230; experiment: Growth of strain DSM 6230 on the test substances (OD660); format: cell-based; conditions: for OD660: 5 g/l of the substance in minimum medium with 1.0 g/l yeast extract, 36 h, 30° C.; for Growth of the strain on the substance (in words): strain DSM 6230
Procedure: 1367 strains were isolated during the screening program. These strains were incubated in 100 ml Erlenmeyer flasks containing 20 ml of the particular enrichment medium in a rotary agitator at 30° C. and 120 rpms. The optical density at 660 nm was taken as an indication for the cell growth.
as §1, §2

[5] = additive 1 mM, 45 min. preincubation at 30° C.
[6] = additive 10 mM, 45 min. preincubation at 30° C.
[7] = carnitine amide concentration 0.5 g/l
[8] = carnitine amide concentration 1.0 g/l
[9] = carnitine amide concentration 2.0 g/l
[10] = carnitine amide concentration 3.0 g/l
[11] = carnitine amide concentration 5.0 g/l
[12] = carnitine amide concentration 10.0 g/l
[13] = carnitine amide concentration 15.0 g/l
[14] = carnitine amide concentration 20.0 g/l
[15] = carnitine amide concentration 25.0 g/l

CCN1C(=O)C=CC1=O [Ethyl maleinimide]
Enzyme activity (%) [1]: 99%
Enzyme activity (%) [1, 5]: 100%

[Ba+2].[Cl-].[Cl-] [BaCl2]
Enzyme activity (%) [1, 5]: 102%
Enzyme activity (%) [1, 6]: 105%

O=S(=O)(F)Cc1ccccc1 [Phenylmethane sulfonylfluoride (PMSF), Phenylmethane sulfonylfluoride]
Enzyme activity (%) [1, 5]: 23%
Enzyme activity (%) [1, 6]: 2%

NC(=O)[C@@H](N)Cc1c[nH]cn1 [L-His-NH2]
Rel. activity (%) [2]: 0%

NC(=O)c1cccnc1 [Nicotinamide]
Activity (mU/mg) [3]: 28 mU/mg
Activity (mU/ml) [3]: 55 mU/ml
OD660 [4]: 0.7

C[N+](C)(C)CC(O)CC#N (racemic) [DL-carnitine nitrile]
Activity (mU/mg) [3]: 88 mU/mg
Activity (mU/ml) [3]: 221 mU/ml
OD660 [4]: 0.8

[F-].[Na+] [NaF]
Enzyme activity (%) [1, 5]: 88%
Enzyme activity (%) [1, 6]: 78%
Reduction of the enzyme activity (in words) ([1]; concentration of 10 mM): reduction of the enzyme activity

CC=O [Acetaldehyde]
Enzyme activity (%) [1, 5]: 83%
Enzyme activity (%) [1, 6]: 81%

[Cl][Mn][Cl] [MnCl2]
Enzyme activity (%) [1, 5]: 89%
Enzyme activity (%) [1, 6]: 76%
Reduction of the enzyme activity (in words) ([1]; concentration of 10 mM): reduction of the enzyme activity

O=[N+]([O-])[O-].[Ag+] [AgNO3]
Enzyme activity (%) [1, 5]: 65%

N=C(N)NCCC[C@H](N)C(N)=O [L-Arg-NH2]
Rel. activity (%) [2]: 0%

C[N+](C)(C)C[C@H](O)CC(=O)[O-] [L-carnitine, 3-hydroxy-4-trimethylaminobutyrate]
Induction of L-carnitine amidase (in words) ([3]; strain DSM 6230): induced; also recorded: Inductors

CCC(CC)(C(=O)O)C(=O)O [Diethyl malonic acid]
Enzyme activity (%) [1, 5]: 92%
Enzyme activity (%) [1, 6]: 68%
Reduction of the enzyme activity (in words) ([1]; concentration of 10 mM): reduction of the enzyme activity

[Cl][Ni][Cl] [NiCl2]
Enzyme activity (%) [1, 5]: 80%
Enzyme activity (%) [1, 6]: 79%

NC(=O)[C@H](N)Cc1ccccc1 [D-Phe-NH2]
Rel. activity (%) [2]: 0%

Cl.N=C(N)c1ccc(N)cc1 [Para-amino benzamidine hydrochloride]
Enzyme activity (%) [1, 5]: 88%
Enzyme activity (%) [1, 6]: 99%

NC(=O)[C@@H](N)Cc1ccc(O)cc1 [L-Tyr-NH2]
Rel. activity (%) [2]: 0%

[Ca+2].[Cl-].[Cl-] [CaCl2]
Enzyme activity (%) [1, 5]: 103%
Enzyme activity (%) [1, 6]: 90%

C[N+](C)(C)CC(O)CC(N)=O (racemic) [DL-carnitine amide]
Activity (mU/mg) [3]: 1673 mU/mg
Activity (mU/ml) [3]: 8867 mU/ml
amidase activity (U/ml) [3, 7]: 0.7 U/ml
amidase activity (U/ml) [3, 8]: 2.4 U/ml
amidase activity (U/ml) [3, 9]: 6.1 U/ml
amidase activity (U/ml) [3, 10]: 7.3 U/ml
amidase activity (U/ml) [3, 11]: 8.9 U/ml
amidase activity (U/ml) [3, 12]: 8.6 U/ml
amidase activity (U/ml) [3, 13]: 7.3 U/ml
amidase activity (U/ml) [3, 14]: 7.1 U/ml
amidase activity (U/ml) [3, 15]: 6.7 U/ml
OD660 [4]: 2.7
OD660 nm [4, 7]: 1.1
OD660 nm [4, 8]: 1.3
OD660 nm [4, 9]: 1.7
OD660 nm [4, 10]: 2.0
OD660 nm [4, 11]: 2.8
OD660 nm [4, 12]: 3.9
OD660 nm [4, 13]: 3.7
OD660 nm [4, 14]: 3.6
OD660 nm [4, 15]: 3.5
Growth of the strain on the substance (in words) [4]: Good growth

O=C(O)c1cc[c]([Hg][OH])cc1 [Para-hydroxymercuribenzoate]
Enzyme activity (%) [1, 5]: 51%

O=C(O)c1cc(SSc2ccc([N+](=O)[O-])c(C(=O)O)c2)ccc1[N+](=O)[O-] [Dinitrodithiodibenzoic acid]
Enzyme activity (%) [1, 5]: 34%

[Cl][Fe]([Cl])[Cl] [FeCl3]
Enzyme activity (%) [1, 5]: 87%
Enzyme activity (%) [1, 6]: 46%

C[C@@H](O)[C@H](N)C(N)=O [1-Thr-NH2]
Rel. activity (%) [2]: 0%

C[N+](C)(C)CC(=O)[O-] [Glycine betaine]
Activity (mU/mg) [3]: 33 mU/mg
Activity (mU/ml) [3]: 183 mU/ml
OD660 [4]: 2.9
Growth of the strain on the substance (in words) [4]: Good growth

N[C@@H]1CON=C1O [Cycloserine]
Enzyme activity (%) [1, 5]: 96%
Enzyme activity (%) [1, 6]: 97%

[Cl][Fe][Cl] [FeCl2]
Enzyme activity (%) [1, 5]: 86%
Enzyme activity (%) [1, 6]: 57%

NC(=O)CNC(=O)[C@@H](N)Cc1ccc(O)cc1 [L-Tyr-Gly-NH2]
Rel. activity (%) [2]: 0%

c1cnc2c(c1)ccc1cccnc12 [Phenanthroline]
Enzyme activity (%) [1, 5]: 89%
Enzyme activity (%) [1, 6]: 82%

O=C(O)CN(CCN(CC(=O)O)CC(=O)O)CC(=O)O [Titriplex III (EDTA)]
Enzyme activity (%) [1]: 93% and 73%
Reduction of the enzyme activity (in words) [1]: reduction of the enzyme activity
